US20240252488A1 (KOREA RESEARCH INSTITUTE OF CHEMICAL TECHNOLOGY, priority 2020, published 2024)

Assays:
FADD−/− Jurkat cells = experiment: Necroptosis inhibition assay, TNF-α-induced necroptosis (CellTiter-Glo 2.0); type: cell-based, human; details: TNF-α 15 ng/mL; for Necroptosis inhibition assay (Rescue %) 1 μM: compound 1 μM; for Necroptosis inhibition assay (Rescue %) 10 μM: compound 10 μM
Procedure, shortened: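 Cmpd 0.1/1/10 μM final, 30 min RT preincubation; TNF-α 15 ng/mL final; 20–24 h, 37° C, 5% CO2. Readout: ATP luminescence (reagent 1:3 in PBS), 0.5 s/well. Cytotoxicity and % necroptosis inhibition calculated from signal.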

MLKL [1] = molecular target: T1, MLKL (Homo sapiens, UniProt Q8NB16); experiment: MLKL degradation assay in HepG2 cell line (western blot); type: cell-based; parameters: endogenous in cells; host or cells: HepG2 or HaCaT; details: cell line not given; for Degradation assay (Degradation %) 1 μM: compound 1 μM; for Degradation assay (Degradation %) 10 μM: compound 10 μM
T1 sequence (Q8NB16 1-471): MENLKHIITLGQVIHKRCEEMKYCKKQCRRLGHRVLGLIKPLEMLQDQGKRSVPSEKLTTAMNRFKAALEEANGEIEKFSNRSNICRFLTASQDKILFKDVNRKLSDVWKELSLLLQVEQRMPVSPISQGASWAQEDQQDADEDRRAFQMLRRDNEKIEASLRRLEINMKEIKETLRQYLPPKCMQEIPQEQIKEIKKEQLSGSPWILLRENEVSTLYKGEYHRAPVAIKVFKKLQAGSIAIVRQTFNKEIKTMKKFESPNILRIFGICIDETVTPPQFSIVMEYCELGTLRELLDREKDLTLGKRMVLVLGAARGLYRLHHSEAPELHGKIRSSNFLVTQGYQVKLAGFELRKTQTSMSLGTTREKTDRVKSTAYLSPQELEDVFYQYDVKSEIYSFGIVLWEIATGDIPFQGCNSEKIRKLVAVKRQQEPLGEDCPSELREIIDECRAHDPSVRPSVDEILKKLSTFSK
Procedure, shortened: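 HepG2, cpd final 1 or 10 μM, 20-24 h, 37 °C/5% CO2; RIPA lysis, BCA-normalized, 10-15 μg/lane SDS-PAGE, western blot, ECL read-out.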

MLKL [2] = molecular target: T1, MLKL; experiment: Measurement of binding affinity with MLKL receptor (competitive binding assay, Kd); parameters: made in house; host or cells: HEK 293 cell line (T7 phage in E. coli BL21-derived host is also described)
Procedure, shortened: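 Competitive displacement of MLKL, expressed in HEK 293 cells and DNA-tagged for qPCR, from immobilized ligand on biotin-blocked beads. Compounds were added from 111× DMSO stocks (final DMSO 0.9%). Kinase left in the eluates was quantified by qPCR to give Kd.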

Degradation assay (Degradation %) 1 μM (MLKL [1])	Degradation assay (Degradation %) 10 μM (MLKL [1])	Kd (MLKL [2])	SMILES	Necroptosis inhibition assay (Rescue %) 1 μM (FADD−/− Jurkat cells)	Necroptosis inhibition assay (Rescue %) 10 μM (FADD−/− Jurkat cells)
56.98%	65.18%	1.8 nM	Nc1ncc(-c2cnn(C3CCN(CC4CCN(CC(=O)N5CCN(c6cccc7c6C(=O)N(C6CCC(=O)NC6=O)C7=O)CC5)CC4)CC3)c2)nc1C(=O)OC(C(=O)Nc1ccc(F)cc1)c1ccccc1 (stereo not drawn) [TDH-237, 2-((4-fluorophenyl)amino)-2-oxo-1-phenylethyl 3-amino-6-(1-(1-((1-(2-(4-(2-(2,6-dioxopiperidin-3-yl)-1,3-dioxoisoindolin-4-yl)piperazin-1-yl)-2-oxoethyl)piperidin-4-yl)methyl)piperidin-4-yl)-1H-pyrazol-4-yl)pyrazine-2-carboxylate]	67.77%	34.51%
30.48%	18.31%	1.7 nM	Nc1ncc(-c2cnn(C3CCN(CC4CCN(CC(=O)N5CCC(Nc6cccc7c6C(=O)N(C6CCC(=O)NC6=O)C7=O)CC5)CC4)CC3)c2)nc1C(=O)OC(C(=O)Nc1ccc(F)cc1)c1ccccc1 (stereo not drawn) [TDH-238, 2-((4-fluorophenyl)amino)-2-oxo-1-phenylethyl 3-amino-6-(1-(1-((1-(2-(4-((2-(2,6-dioxopiperidin-3-yl)-1,3-dioxoisoindolin-4-yl)amino)piperidin-1-yl)-2-oxoethyl)piperidin-4-yl)methyl)piperidin-4-yl)-1H-pyrazol-4-yl)pyrazine-2-carboxylate]	43.63%	31.99%
53.9%	65.78%	3.8 nM	Nc1ncc(-c2cnn(C3CCN(CCCN4CCN(C(=O)C5CCN(c6cccc7c6C(=O)N(C6CCC(=O)NC6=O)C7=O)CC5)CC4)CC3)c2)nc1C(=O)OC(C(=O)Nc1ccc(F)cc1)c1ccccc1 (stereo not drawn) [TDH-239, 2-((4-fluorophenyl)amino)-2-oxo-1-phenylethyl 3-amino-6-(1-(1-(3-(4-(1-(2-(2,6-dioxopiperidin-3-yl)-1,3-dioxoisoindolin-4-yl)piperidine-4-carbonyl)piperazin-1-yl)propyl)piperidin-4-yl)-1H-pyrazol-4-yl)pyrazine-2-carboxylate]	40.3%	23.29%
88.47%	–	4.2 nM	Nc1ncc(-c2cnn(C3CCN(CCCN4CCN(C(=O)C5CCN(c6ccc7c(c6)C(=O)N(C6CCC(=O)NC6=O)C7=O)CC5)CC4)CC3)c2)nc1C(=O)OC(C(=O)Nc1ccc(F)cc1)c1ccccc1 (stereo not drawn) [TDH-240, 2-((4-fluorophenyl)amino)-2-oxo-1-phenylethyl 3-amino-6-(1-(1-(3-(4-(1-(2-(2,6-dioxopiperidin-3-yl)-1,3-dioxoisoindolin-5-yl)piperidine-4-carbonyl)piperazin-1-yl)propyl)piperidin-4-yl)-1H-pyrazol-4-yl)pyrazine-2-carboxylate]	43.23%	14.03%
64.55%	64.03%	2.9 nM	Nc1ncc(-c2cnn(C3CCN(CCCN4CCN(C(=O)CNc5cccc6c5C(=O)N(C5CCC(=O)NC5=O)C6=O)CC4)CC3)c2)nc1C(=O)OC(C(=O)Nc1ccc(F)cc1)c1ccccc1 (stereo not drawn) [TDH-241, 2-((4-fluorophenyl)amino)-2-oxo-1-phenylethyl 3-amino-6-(1-(1-(3-(4-((2-(2,6-dioxopiperidin-3-yl)-1,3-dioxoisoindolin-4-yl)glycyl)piperazin-1-yl)propyl)piperidin-4-yl)-1H-pyrazol-4-yl)pyrazine-2-carboxylate]	50.09%	28.85%
75.75%	66.84%	2.5 nM	Nc1ncc(-c2cnn(C3CCN(CCCN4CCN(C(=O)CNc5ccc6c(c5)C(=O)N(C5CCC(=O)NC5=O)C6=O)CC4)CC3)c2)nc1C(=O)OC(C(=O)Nc1ccc(F)cc1)c1ccccc1 (stereo not drawn) [TDH-242, 2-((4-fluorophenyl)amino)-2-oxo-1-phenylethyl 3-amino-6-(1-(1-(3-(4-((2-(2,6-dioxopiperidin-3-yl)-1,3-dioxoisoindolin-5-yl)glycyl)piperazin-1-yl)propyl)piperidin-4-yl)-1H-pyrazol-4-yl)pyrazine-2-carboxylate]	71.4%	44.8%
57.14%	54.82%	0.94 nM	Nc1ncc(-c2cnn(C3CCN(CCCN4CCN(C(=O)COc5cccc6c5C(=O)N(C5CCC(=O)NC5=O)C6=O)CC4)CC3)c2)nc1C(=O)OC(C(=O)Nc1ccc(F)cc1)c1ccccc1 (stereo not drawn) [TDH-243, 2-((4-fluorophenyl)amino)-2-oxo-1-phenylethyl 3-amino-6-(1-(1-(3-(4-(2-((2-(2,6-dioxopiperidin-3-yl)-1,3-dioxoisoindolin-4-yl)oxy)acetyl)piperazin-1-yl)propyl)piperidin-4-yl)-1H-pyrazol-4-yl)pyrazine-2-carboxylate]	61.25%	53.31%
75.95%	66.16%	1.3 nM	Nc1ncc(-c2cnn(C3CCN(CCCN4CCN(C(=O)COc5ccc6c(c5)C(=O)N(C5CCC(=O)NC5=O)C6=O)CC4)CC3)c2)nc1C(=O)OC(C(=O)Nc1ccc(F)cc1)c1ccccc1 (stereo not drawn) [TDH-244, 2-((4-fluorophenyl)amino)-2-oxo-1-phenylethyl 3-amino-6-(1-(1-(3-(4-(2-((2-(2,6-dioxopiperidin-3-yl)-1,3-dioxoisoindolin-5-yl)oxy)acetyl)piperazin-1-yl)propyl)piperidin-4-yl)-1H-pyrazol-4-yl)pyrazine-2-carboxylate]	92.11%	65.67%
67.67%	62.75%	3.6 nM	Nc1ncc(-c2cnn(C3CCN(CCCN4CCN(c5cccc6c5C(=O)N(C5CCC(=O)NC5=O)C6=O)CC4)CC3)c2)nc1C(=O)OC(C(=O)Nc1ccc(F)cc1)c1ccccc1 (stereo not drawn) [TDH-245, 2-((4-fluorophenyl)amino)-2-oxo-1-phenylethyl 3-amino-6-(1-(1-(3-(4-(2-(2,6-dioxopiperidin-3-yl)-1,3-dioxoisoindolin-4-yl)piperazin-1-yl)propyl)piperidin-4-yl)-1H-pyrazol-4-yl)pyrazine-2-carboxylate]	65.75%	14.51%
66.35%	46.78%	3.3 nM	Nc1ncc(-c2cnn(C3CCN(CCCN4CCN(c5ccc6c(c5)C(=O)N(C5CCC(=O)NC5=O)C6=O)CC4)CC3)c2)nc1C(=O)OC(C(=O)Nc1ccc(F)cc1)c1ccccc1 (stereo not drawn) [TDH-246, 2-((4-fluorophenyl)amino)-2-oxo-1-phenylethyl 3-amino-6-(1-(1-(3-(4-(2-(2,6-dioxopiperidin-3-yl)-1,3-dioxoisoindolin-5-yl)piperazin-1-yl)propyl)piperidin-4-yl)-1H-pyrazol-4-yl)pyrazine-2-carboxylate]	60.97%	26.97%
64.32%	45.04%	4.6 nM	Nc1ncc(-c2cnn(C3CCN(CCOC4CCN(C(=O)C5CCN(c6cccc7c6C(=O)N(C6CCC(=O)NC6=O)C7=O)CC5)CC4)CC3)c2)nc1C(=O)OC(C(=O)Nc1ccc(F)cc1)c1ccccc1 (stereo not drawn) [TDH-247, 2-((4-fluorophenyl)amino)-2-oxo-1-phenylethyl 3-amino-6-(1-(1-(2-((1-(1-(2-(2,6-dioxopiperidin-3-yl)-1,3-dioxoisoindolin-4-yl)piperidine-4-carbonyl)piperidin-4-yl)oxy)ethyl)piperidin-4-yl)-1H-pyrazol-4-yl)pyrazine-2-carboxylate]	40.99%	33.69%
